Key:
Assay type in all cases: biochemical
Settings in all cases: inhibit 50% of activity at 50 μM
JAK3 = target: T1, JAK3 (Homo sapiens, UniProt P52333); assay: JAK3 kinase domain capture-based ELISA kinase assay
T1 construct: The kinase domain of humanJAK3 was amplified from U937mRNA; His tag (from pFastBac HTb vector; nickel chelate purification) (N); made in house; host or cells: baculovirus; virus made in Sf9, large-scale expression in High Five insect cells
Description: (§1) For screening purposes, compounds were diluted in 96 well plates at a concentration of 50 μM or 20 μM. Plates were warmed at 37° C. for 30 minutes before assay.
The kinase domain of humanJAK3 was amplified from U937mRNA using the polymerase chain reaction with the following primers: […]
JAK3 PCR products were cloned into the pFastBac HTb expression vector (Gibco) via the Xho I and Kpn I sites. The JAK3 plasmid was then transformed into competent DH10Bac cells (Gibco), and the recombinant baculovirus produced prepared for transfection into Sf9 insect cells.
(§2) Baculovirus preparations from each of the JAK family members were infected into five litres of High Five cells (Invitrogen) grown in High Five serum free medium (Invitrogen) to a cell density of approximately 1-2×10^6 cells/ml. Cells are infected with virus at a MOI of 0.8-3.0. Cells were harvested and lysed. JAK kinase domains were purified by affinity chromatography on a Probond (Invitrogen) nickel chelate affinity column.
(§3) The biotinylated substrate biotin-EGPWLEEEEEAYGWMDF-NH2 (SEQ ID NO:9) (final concentration 5 μM) was used as substrate, and tyrosine phosphorylation was quantitated following transfer to an avidin coated ELISA plate using peroxidase-linked anti-phospho-tyrosine antibody PY20.
(§4) Inhibitors were added to the assays fifteen minutes prior to the addition of ATP. Inhibitors were added in aqueous DMSO, with DMSO concentrations never exceeding 1%.

JAK2 = target: T2, JAK2 (Homo sapiens, UniProt O60674); assay: JAK2 kinase domain capture-based ELISA kinase assay
T2 construct: The kinase domain of humanJAK2 was amplified from U937mRNA; His tag (from pFastBac HTc vector; nickel chelate purification) (N); made in house; host or cells: baculovirus; virus made in Sf9, large-scale expression in High Five insect cells
T2 sequence (O60674 849-1124 limits assumed): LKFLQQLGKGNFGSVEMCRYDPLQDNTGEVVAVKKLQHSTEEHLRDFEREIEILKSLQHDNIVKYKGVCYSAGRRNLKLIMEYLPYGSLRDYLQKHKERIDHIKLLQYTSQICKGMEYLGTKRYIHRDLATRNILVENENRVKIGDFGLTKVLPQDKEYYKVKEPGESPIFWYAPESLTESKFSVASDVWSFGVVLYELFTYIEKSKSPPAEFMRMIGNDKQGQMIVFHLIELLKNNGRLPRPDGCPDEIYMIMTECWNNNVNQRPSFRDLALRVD
Description: as §1
The kinase domain of humanJAK2 was amplified from U937mRNA using the polymerase chain reaction with the following primers: […]
JAK2 PCR products were cloned into the pFastBac HTc expression vector (Gibco) via the Sal I and Not I sites. The JAK2 plasmid was then transformed into competent DH10Bac cells (Gibco), and the recombinant baculovirus produced prepared for transfection into Sf9 insect cells.
as §2, §3, §4

TYK2 = target: T3, TYK2 (Homo sapiens, UniProt P29597); assay: TYK2 kinase domain capture-based ELISA kinase assay
T3 construct: The kinase domain of humanTYK2 was amplified from A549 mRNA; His tag (from pBlueBacHis2A vector; nickel chelate purification) (N); made in house; host or cells: baculovirus; virus made in Sf9, large-scale expression in High Five insect cells
T3 sequence (P29597 897-1176 limits assumed): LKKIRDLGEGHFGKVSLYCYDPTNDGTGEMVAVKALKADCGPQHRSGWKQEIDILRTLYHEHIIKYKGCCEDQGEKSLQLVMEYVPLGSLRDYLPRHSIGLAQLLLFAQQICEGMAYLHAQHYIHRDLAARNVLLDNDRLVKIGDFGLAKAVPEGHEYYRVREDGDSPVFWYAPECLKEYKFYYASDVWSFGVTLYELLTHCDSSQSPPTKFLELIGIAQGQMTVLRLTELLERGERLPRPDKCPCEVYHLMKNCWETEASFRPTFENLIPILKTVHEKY
Description: as §1
The kinase domain of humanTYK2 was amplified from A549 mRNA using the polymerase chain reaction with the following primers: […]
TYK2 PCR products were cloned into pBlueBacHis2A (Invitrogen) via the EcoRI site. The recombinant TYK2 baculovirus produced was prepared for transfected into Sf9 insect cells.
as §2, §3, §4

JAK1 = target: T4, JAK1 (Homo sapiens, UniProt P23458); assay: JAK1 kinase domain capture-based ELISA kinase assay
T4 construct: The kinase domain of humanJAK1 was amplified from U937mRNA; His tag (from pFastBac HTb vector; nickel chelate purification) (N); made in house; host or cells: baculovirus; virus made in Sf9, large-scale expression in High Five insect cells
T4 sequence (P23458 875-1153 limits assumed): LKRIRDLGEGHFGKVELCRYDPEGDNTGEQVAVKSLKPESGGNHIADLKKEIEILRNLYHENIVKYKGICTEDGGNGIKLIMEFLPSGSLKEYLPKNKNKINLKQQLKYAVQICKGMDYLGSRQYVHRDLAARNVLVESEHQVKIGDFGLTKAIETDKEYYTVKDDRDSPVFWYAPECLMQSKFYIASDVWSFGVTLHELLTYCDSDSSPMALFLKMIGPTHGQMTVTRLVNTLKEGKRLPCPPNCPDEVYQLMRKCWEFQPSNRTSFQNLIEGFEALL
Description: as §1
The kinase domain of humanJAK1 was amplified from U937mRNA using the polymerase chain reaction with the following primers: […]
JAK1 PCR products were cloned into the pFastBac HTb expression vector (Gibco) via the Xho I and Kpn I sites. The JAK1 plasmid was then transformed into competent DH10Bac cells (Gibco), and the recombinant baculovirus produced prepared for transfection into Sf9 insect cells.
as §2, §3, §4

T1 sequence (P52333 822-1111 limits assumed): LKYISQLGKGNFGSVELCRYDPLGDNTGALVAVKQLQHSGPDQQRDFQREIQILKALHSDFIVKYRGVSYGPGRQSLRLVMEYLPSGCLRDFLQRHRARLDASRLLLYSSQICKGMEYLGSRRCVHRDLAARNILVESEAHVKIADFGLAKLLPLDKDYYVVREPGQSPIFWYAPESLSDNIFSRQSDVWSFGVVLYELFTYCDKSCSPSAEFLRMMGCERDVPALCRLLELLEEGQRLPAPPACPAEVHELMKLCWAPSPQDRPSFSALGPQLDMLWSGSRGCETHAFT

IC50 (JAK3; Table 6) [µM]	IC50 (JAK2; Table 6) [µM]	IC50 (TYK2; Table 6) [µM]	IC50 (JAK1; Table 6) [µM]	IC50 (JAK3; Table 3) [µM]	IC50 (JAK2; Table 3) [µM]	IC50 (TYK2; Table 3) [µM]	IC50 (JAK1; Table 3) [µM]	SMILES
				< 50	< 50	< 50	< 50	COc1cccc(-c2cccc(N3CCN(C)CC3)n2)c1 [CYT13809]
				< 50	< 50	< 50	< 50	COc1cncc(-c2cccc(Nc3cccnc3)n2)c1 [CYT14607]
				< 50	< 50	< 50	< 50	c1cncc(Nc2cccc(-c3ccncc3)n2)c1 [CYT14804]
				< 50	< 50	< 50	< 50	COc1cncc(-c2cncc(NCc3cccs3)n2)c1 [CYT20303]
				< 50	< 50	< 50	< 50	Fc1ccc(CNc2cncc(-c3cccnc3)n2)cc1 [CYT20307]
				< 50	< 50	< 50	< 50	CC(=O)Nc1cccc(-c2cncc(NCc3cccc(Cl)c3)n2)c1 [CYT20310]
				< 50	< 50	< 50	< 50	COc1cncc(-c2cncc(NCc3ccco3)n2)c1 [CYT20406]
				< 50	< 50	< 50	< 50	C[C@H](Nc1cncc(-c2cccc(CO)c2)n1)c1ccccc1 [CYT20504]
				< 50	< 50	< 50	< 50	OCc1cccc(-c2cncc(NCc3ccccc3)n2)c1 [CYT20506]
				< 50	< 50	< 50	< 50	CC(=O)Nc1cccc(-c2cncc(N[C@@H](C)c3ccccc3)n2)c1 [CYT20508]
				< 50	< 50	< 50	< 50	COc1cc(-c2cncc(N[C@@H](C)c3ccccc3)n2)cc(OC)c1OC [CYT20510]
				< 50	< 50	< 50	< 50	COc1cncc(-c2cncc(NCC(C)(C)CO)n2)c1 [CYT21103]
				< 50	< 50	< 50	< 50	COc1cc(-c2cncc(NCCc3ccncc3)n2)cc(OC)c1OC [CYT21404]
				< 50	< 50	< 50	< 50	COc1cncc(-c2cncc(N[C@H](CO)C(C)C)n2)c1 [CYT21507]
				< 50	< 50	< 50	< 50	COc1cncc(-c2cncc(NCc3ccc(F)cc3)n2)c1 [CYT24108]
				< 50	< 50	< 50	< 50	COc1cncc(-c2cncc(N[C@@H](C)c3ccccc3)n2)c1 [CYT24510]
				< 50	< 50	< 50	< 50	COc1cncc(-c2cncc(NCc3ccccc3)n2)c1 [CYT24605]

Continued, compound first:

SMILES	IC50 (JAK3; Table 6) [µM]	IC50 (JAK2; Table 6) [µM]	IC50 (TYK2; Table 6) [µM]	IC50 (JAK1; Table 6) [µM]	IC50 (JAK3; Table 3) [µM]	IC50 (JAK2; Table 3) [µM]	IC50 (TYK2; Table 3) [µM]	IC50 (JAK1; Table 3) [µM]
CN(C)c1ccc(-c2cn3ccnc3c(NC3CC3)n2)cc1	< 50	> 50	> 50	> 50				
FC(F)C(F)(F)Oc1cccc(Nc2nc(-c3cc(C(F)(F)F)cc(C(F)(F)F)c3)cn3ccnc23)c1	> 50	> 50	> 50	< 50				
CC(=O)Nc1cccc(-c2cn3ccnc3c(Nc3ccc(N4CCOCC4)cc3)n2)c1	> 50	< 50	< 50	< 50				
OCCc1ccc(Nc2nc(-c3ccccc3F)cn3ccnc23)cc1	< 50	< 50	< 50	< 50				
O=C(O)c1cccc(-c2cn3ccnc3c(Nc3ccc4cn[nH]c4c3)n2)c1	> 50	< 50	< 50	< 50				
O=C(O)c1ccc(-c2cn3ccnc3c(Nc3ccc4cn[nH]c4c3)n2)cc1	> 50	< 50	< 50	< 50				
COc1ccc(Nc2nc(-c3ccccc3OC)cn3ccnc23)cn1	> 50	< 50	< 50	< 50				
c1coc(-c2cn3ccnc3c(Nc3ccc4[nH]ccc4c3)n2)c1	> 50	< 50	< 50	< 50				
Oc1cccc(-c2cn3ccnc3c(N3CCOCC3)n2)c1	> 50	< 50	> 50	> 50				
CCCC/C=C/c1cn2ccnc2c(Nc2ccc(OC)nc2)n1	> 50	< 50	> 50	> 50				
COc1ccc(Nc2nc(-c3ccccc3Cl)cn3ccnc23)cn1	> 50	< 50	> 50	> 50				
CCCC/C=C/c1cn2ccnc2c(NC2CCC(O)CC2)n1 (stereo not shown)	< 50	> 50	> 50	> 50				
c1cncc(-c2cn3ccnc3c(NCCc3ccncc3)n2)c1	< 50	> 50	> 50	> 50				
c1cncc(CCNc2nc(-c3ccco3)cn3ccnc23)c1	< 50	> 50	> 50	> 50				
COc1ccc(Nc2nc(-c3c(C)cccc3C)cn3ccnc23)cn1	< 50	> 50	> 50	> 50				
c1ccc(CN2CC[C@@H](Nc3nc(-c4ccc5c(c4)OCO5)cn4ccnc34)C2)cc1	> 50	> 50	< 50	> 50				
Clc1ccccc1-c1cn2ccnc2c(Nc2ccc3[nH]ccc3c2)n1	> 50	< 50	< 50	< 50				
CN(C)CCNC(=O)c1ccc(-c2cn3ccnc3c(Nc3ccc(C(=O)O)cc3)n2)cc1	< 50	< 50	< 50	< 50				
CN(C)C(=O)COc1cccc(Nc2nc(-c3cccc(N)c3)cn3ccnc23)c1	< 50	< 50	< 50	< 50				
CCCC/C=C/c1cn2ccnc2c(Nc2ccc(N(CC)CCO)cc2)n1	< 50	< 50	< 50	< 50				
CCN(CCO)c1ccc(Nc2nc(-c3ccccc3)cn3ccnc23)cc1	< 50	< 50	< 50	< 50				
CN(C)C(=O)COc1cccc(Nc2nc(-c3ccccc3)cn3ccnc23)c1	> 50	< 50	< 50	< 50				
CCN(CCO)c1ccc(Nc2nc(-c3ccccc3Cl)cn3ccnc23)cc1	< 50	< 50	< 50	< 50				
CN(C)C(=O)COc1cccc(Nc2nc(-c3ccccc3Cl)cn3ccnc23)c1	< 50	< 50	< 50	< 50				
CCN(CCO)c1ccc(Nc2nc(-c3ccc(F)c(Cl)c3)cn3ccnc23)cc1	> 50	< 50	< 50	< 50				
Fc1ccc(-c2cncc(N3CCN(CCN4CCCC4)CC3)n2)cc1Cl [CY734702]					< 50	< 50	< 50	< 50
